Measurements from US20070259837A1, “Use of Non-Glucocorticoid Steroids for the Treatment of Muscular Dystrophy” (SANTHERA PHARMACEUTICALS (SCHWEIZ) AG, priority 2004, published 2007).
Where two headings read alike, the source gives them in different places.

System: utrophin protein in human muscle cells derived from DMD patients
Assay: Cell-based ELISA for normalized utrophin protein level in primary human myotube cultures
Conditions: for % UTR vs. PDN (normalized utrophin protein as % of PDN-treated sister cultures): same experiment; for activity at 0.5 µM: Myotube, read-out: % UTR vs. DMSO (normalized utrophin protein over DMSO-solvent treated control)
Method: The method used to detect and determine utrophin-inducing activity of non-glucocorticoid steroids has been described previously (Courdier-Fruh, I., Barman, L., Briguet, A. & Meier, T.; 2002, Neuromuscul. Disord.; 12 Suppl:S95). Briefly, primary human muscle cell cultures were prepared according to standard protocols (Askanas V, Kwan H, Alvarez R B, Engel W K, Kobayashi T, Martinuzzi A, Hawkins E F., 1987, J Neurocytol., 16:523-537). Test compounds and the glucocorticoid 6α-methylprednisolone-21 sodium succinate (Pharmacia & Upjohn; Solu-Medrol®, PDN) as reference compound were applied at 500 nM final concentration as soon as myoblasts started to differentiate into myotubes. Incubation with the test compound was ended as soon as well differentiated myotubes have formed, typically resulting in an incubation time with a test compound for 3-7 days.
Normalized concentrations of utrophin protein in human muscle cells cultured in microtiter plates were determined by a cell-based enzyme-linked immunosorbent assay (ELISA) procedure that allows a successive readout for the cell density and utrophin protein level. For calibration, the cell density and differentiation was determined by absorbance measurements of the total dehydrogenase enzyme activity in each well using the colorimetric CellTiter 96®AQ One Solution Reagent Proliferation Assay (Promega) according to the manufacturer's recommendation. Subsequently, cells were fixed, washed, permeabilized with 0.5% (v/v) Triton X-100 and unspecific antibody binding-sites were blocked by standard procedures. Utrophin protein levels were determined immunologically with utrophin-specific primary antibodies (mouse monoclonal antibody to the amino terminal portion of utrophin, NCL-DRP2, Novocastra Laboratories) and with appropriate peroxidase-coupled secondary antibodies using QuantaBlu™ Fluorogenic Peroxidase Substrate Kit (Pierce) for detection. Fluorescence measurements were carried out with a multilabel counter (Wallac) at λex=325 nm and at λem=420 nm. The primary readout of this signal is presented in arbitrary units. For calibration, the arbitrary units representing the relative utrophin protein content of each well were divided by the corresponding cell-titer absorbance value to correct for cell density. For comparison between experiments, the cell-titer corrected readout for utrophin protein content in each well was expressed in percent of solvent treated control cultures (set to 100%). PDN was included in all experiments as reference glucocorticoid, N=3-5 for each compound tested.
Non-glucocorticoid test compounds, applied in a concentration of 500 nM, were regarded as “positive” in case the increase in the level of utrophin protein was at least 20% (mean value) over control cultures treated with the appropriate dilution of DMSO solvent as control and containing no test compound.
A range of different pharmaceutical compounds were tested for their ability to increase levels of utrophin protein in primary human myotube cultures. The cell-based ELISA protocol used to detect the level of utrophin protein is provided above and described in Courdier-Fruh, I., Barman, L., Briguet, A. & Meier, T, 2002, Neuromuscul. Disord.: 12, Suppl:S95. Briefly, fixed and permeabilized human muscle cells derived from DMD patients and cultured in 96-well cell culture plates were incubated with antibodies specific for utrophin at a dilution of 1:1'000 in blocking solution (phosphate buffered saline (PBS) supplemented with 2% fetal calf serum and 1% bovine serum albumin) for 10-15 hours at 4° C. Following several washing steps with 0.1% Triton X-100 in PBS, peroxidase-coupled secondary antibodies diluted 1:3'000 in blocking solution were applied in each well for 1-2 hours at room temperature. Signal detection, data acquisition and normalization was performed as described above and in Courdier-Fruh, I., Barman, L., Briguet, A. & Meier, T, 2002, Neuromuscul. Disord.: 12, Suppl:S95. […]

[1] = 500 nM compound, human muscle cultures, mean value, N=3-6

Row | Structure (SMILES) | inhibition of CDCA-mediated utrophin increase by glucocorticoid receptor antagonist RU38486 (500 nM CDCA + 500 nM RU38486 simultaneously, human DMD-patient derived muscle cells, FIG. 2) | % UTR vs. PDN (normalized utrophin protein as % of PDN-treated sister cultures) [1] [%] | activity at 0.5 µM (Homo sapiens) [%] | utrophin protein levels normalized to cell density (UTR, relative units) compared to solvent-treated control (DMSO) (human DMD-patient derived muscle cells, 500 nM, FIG. 1 / FIG. 2, N=5-6, listed as CDCA) | activity at 0.5 µM [1] [%]
1 | C[C@H](CCC(=O)O)[C@H]1CC[C@H]2[C@@H]3[C@H](O)C[C@@H]4C[C@H](O)CC[C@]4(C)[C@H]3CC[C@]12C [Example 11, 3α,7α-dihydroxy-5β-cholanic acid] | not inhibited | 81 | 172 | significantly increased | 
2 | C[C@]12CCC3C(CC[C@H]4C[C@@H](OC(=O)c5ccccc5)CC[C@]34C)C1CC[C@@H]2OC(=O)c1ccccc1 (some centres unmarked) [Example 38] |  | 108 | 126 |  | 
3 | CCC(=O)O[C@H]1CC[C@]2(C)C3CC[C@]4(C)C(=O)CCC4C3CC[C@H]2C1 (some centres unmarked) [Example 43] |  | 99 | 128 |  | 
4 | COc1ccc2c(c1)CCC1C2CC[C@@]2(C)C1CC[C@]2(C)O (some centres unmarked) [Example 79] |  | 98 | 126 |  | 
5 | C[C@]12CCC(=O)C=C1CC[C@@H]1[C@@H]2CC[C@@]2(C)[C@H]1CC[C@]2(O)C(=O)CO [Example 53, Cortexolone] |  | 111 |  |  | 146
6 | CC(=O)C1CCC2C3C[C@@H]4O[C@@]45C[C@@H](O)CC[C@]5(C)C3CC[C@]12C (some centres unmarked) [Example 64] |  | 97 | 127 |  | 
7 | COC(=O)CCC(=O)O[C@H]1CC[C@]2(C)C3C(=O)[C@@H](O)[C@]4(C)C5[C@H](C[C@H]4[C@@H]3CC[C@H]2C1)O[C@]1(CCC(C)CO1)[C@H]5C (some centres unmarked) [Example 26] |  | 98 | 123 |  | 
8 | C[C@@]12C=CCC1C1CC[C@H]3C[C@H](O)CC[C@]3(C)C1CC2 (some centres unmarked) [Example 47] |  | 98 | 127 |  | 
9 | CC(C)C/C=C\C(C)[C@H]1CC[C@@]2(C)C3=CC=C4C(C)(C)[C@@H](O)CC[C@]4(C)C3CC[C@]12C (some centres unmarked) [Example 36] |  | 96 | 122 |  | 
10 | CC(=O)O[C@@H]1C[C@]2(C)C(C3=CC(=O)OC3)CC[C@]2(O)C2CC[C@@H]3C[C@@H](O)CC[C@]3(C)C21 (some centres unmarked) [Example 83] |  | 99 | 121 |  | 
11 | C[C@H](C(=O)O)C1CCC2C3CC=C4C[C@H](O)CC[C@]4(C)C3CC[C@@]21C (some centres unmarked) [Example 16] |  | 104 | 136 |  | 
12 | CC1CC[C@@]2(OC1)O[C@H]1C[C@H]3[C@@H]4CC[C@H]5C[C@@H](OC(=O)c6ccccc6)CC[C@]5(C)C4=CC(=O)[C@]3(C)C1[C@@H]2C (some centres unmarked) [Example 20] |  | 113 | 131 |  | 
13 | C[C@]12CC[C@H](OC(=O)c3ccccc3)CC1=CCC1C2CC[C@@]2(C)C1CC[C@@H]2NC(=O)c1ccccc1 (some centres unmarked) [Example 39] |  | 106 | 121 |  | 
14 | C[C@]12C=CC(=O)C=C1CCC1C2=CC[C@]2(C)C(C(=O)CN3CCN(c4cc(N5CCCC5)nc(N5CCCC5)n4)CC3)CCC12.O=C(O)/C=C\C(=O)O (some centres unmarked) [Example 51] |  | 113 | 143 |  | 
15 | CC(=O)O[C@@H]1CC[C@]2(C)C3CC[C@]4(C)C(C(C)CCC(=O)O)CCC4C3CC[C@@H]2C1 (some centres unmarked) [Example 7] |  | 104 | 121 |  | 
16 | CC(=O)Oc1ccc2c(c1)CCC1C2CC[C@]2(C)C(=O)CCC12 (some centres unmarked) [Example 76, Estrone acetate] |  | 102 | 129 |  | 
17 | CC(C)CCCC(C)[C@H]1CCC2C3C[C@@H](O)[C@@]4(O)C[C@@H](O)CC[C@]4(C)C3CC[C@@]21C (some centres unmarked) [Example 35] |  | 94 | 122 |  | 

Row | Structure (SMILES) | inhibition of CDCA-mediated utrophin increase by glucocorticoid receptor antagonist RU38486 (500 nM CDCA + 500 nM RU38486 simultaneously, human DMD-patient derived muscle cells, FIG. 2) | % UTR vs. PDN (normalized utrophin protein as % of PDN-treated sister cultures) [1] [%] | activity at 0.5 µM (Homo sapiens) [%] | utrophin protein levels normalized to cell density (UTR, relative units) compared to solvent-treated control (DMSO) (human DMD-patient derived muscle cells, 500 nM, FIG. 1 / FIG. 2, N=5-6, listed as CDCA) | activity at 0.5 µM [1] [%]
18 | C[C@]12CCC3c4ccc(O)cc4CCC3C1CC[C@@H]2O (some centres unmarked) [Example 71, Estradiol] |  | 105 |  |  | 136
19 | CC(CCC(=O)O)C1CCC2C3CC(=O)[C@@H]4C[C@H](O)CC[C@]4(C)C3CC[C@]12C (some centres unmarked) [Example 5] |  | 108 |  |  | 136
20 | C[C@]12CCC3c4ccc(OC(=O)c5ccccc5)cc4CCC3C1CC[C@@H]2O (some centres unmarked) [Example 73] |  | 105 |  |  | 132
21 | C[C@]12CCC3c4ccc(OCc5ccccc5)cc4CCC3C1C[C@@H](O)[C@@H]2O (some centres unmarked) [Example 72] |  | 105 | 132 |  | 
22 | CC(CCC(=O)O)C1CCC2C3C(=O)C[C@@H]4CC(=O)CC[C@]4(C)C3CC(=O)[C@]12C (some centres unmarked) [Example 15] |  | 92 |  |  | 117
23 | C[C@]12CC(=O)C3C(CC[C@@H]4C[C@H](O)CC[C@]34C)C1CC[C@]2(O)C1(CO)OCCO1 (some centres unmarked) [Example 70] |  | 94 | 122 |  | 
24 | C[C@]12CCC3C(CC[C@H]4C[C@@H](OC(=O)c5ccccc5)CC[C@]34C)C1CC(=O)C2 (some centres unmarked) [Example 46] |  | 112 | 131 |  | 
25 | CC(C)CCCC(C)[C@H]1CCC2C3CC[C@H]4C[C@H](O)CC[C@]4(C)C3CC[C@@]21C (some centres unmarked) [Example 34] |  | 97 | 125 |  | 
26 | CCC(=O)Oc1ccc2c(c1)CCC1C2CC[C@@]2(C)C1C[C@@H](OC(=O)CC)[C@@H]2OC(=O)CC (some centres unmarked) [Example 75] |  | 102 | 131 |  | 
27 | CC(=O)O[C@H]1CCC2C3CCc4cc(O)ccc4C3CC[C@@]21C (some centres unmarked) [Example 77] |  | 102 | 128 |  | 
28 | CC(C)=CCCC(C)[C@H]1CC[C@@]2(C)C3=C(CC[C@]12C)[C@@]1(C)CC[C@H](O)C(C)(C)C1CC3 (some centres unmarked) [Example 37, Lanosterol] |  | 102 | 123 |  | 
29 | CC(=O)O[C@H]1CC[C@]2(C)C3C(=O)[C@@H](OC(C)=O)[C@]4(C)C5[C@H](C[C@H]4[C@@H]3CC[C@H]2C1)O[C@]1(CCC(C)CO1)[C@H]5C (some centres unmarked) [Example 24] |  | 103 | 134 |  | 
30 | CC(=O)OCC(=O)[C@@]1(O)CCC2C3CCC4=CC(=O)CC[C@]4(C)C3CC[C@@]21C (some centres unmarked) [Example 63, Cortexolone 21-acetate] |  | 99 | 129 |  | 
31 | C[C@]12C[C@H](O)C3C(CC[C@@H]4C[C@H](O)CC[C@]34C)C1CCC2C(=O)CO (some centres unmarked) [Example 69] |  | 95 | 123 |  | 
32 | CC(CCC(=O)O)C1CCC2C3CC=C4C[C@H](O)CC[C@]4(C)C3CC[C@]12C (some centres unmarked) [Example 13] |  | 96 | 126 |  | 
33 | CC(C)CCCC(C)[C@H]1CCC2C3CC[C@H]4CC(=O)CC[C@]4(C)C3CC[C@@]21C (some centres unmarked) [Example 32] |  | 104 | 132 |  | 
